We go through three compounds from the NIST ThermoML archive (doi:10.1016/j.jct.2012.09.023).

The conditions of the data set: 101.33 kPa, Liquid, Pycnometric method.

± gives the expanded uncertainty stated by the source.

Take `CC(=O)N(C)C.O=C(O)C(F)(F)F` [N,N-dimethylacetamide trifluoroacetate]: the mass density (commonly the mass of a sample divided by its volume) is given as 1227.9 ± 2.1 kg/m3 (303.15 K), 1218 ± 2.1 kg/m3 (313.15 K) and 1208.2 ± 2.1 kg/m3 (323.15 K).
Take `CN(C)C=O.O=C(O)C(F)(F)F` [N,N-dimethylformamide trifluoroacetate]: the mass density is 1246 ± 2.2 kg/m3 (303.15 K), 1232.9 ± 2.2 kg/m3 (313.15 K) and 1219.9 ± 2.2 kg/m3 (323.15 K).
`CN1CCCC1=O.O=C(O)C(F)(F)F` [N-methylpyrrolidone trifluoroacetate]: the mass density was determined as 1232.3 ± 2.1 kg/m3 (303.15 K), 1226.1 ± 2.1 kg/m3 (313.15 K) and 1219.9 ± 2.1 kg/m3 (323.15 K).
